Patent US20240306670A1, “BERBERINE ALKALOIDS IN THE PREVENTION AND/OR TREATMENT OF INTESTINAL DISEASE” (priority 2017, published 2024)
Where “and” joins values, the source holds several entries; their conditions need not be identical. Equal values may be shown once.

Assays:
[1] = Feed palatability, feed and water consumption and bird productivity study (Example 2); assay type: in vivo, broiler chickens
Description: A follow-up study to determine the feed palatability, feed and water consumption and bird productivity following incorporation of a single formulation of IRP001 hemisulfate salt (unmasked) when offered to broiler chickens in-feed or in-water. The study explores the optimal treatment regime in terms of treatment start date.
Phase 1: On receipt, two hundred and seventy (270) day-old commercial broiler chickens were allocated sequentially as they are received into sixteen (16) individual floor pens, each of 16 or 17 birds, on Day 0.
Phase 2: On receipt, the ninety (90) day-old commercial broiler chickens were allocated sequentially as they are received into four (4) individual floor pens, each of 22 or 23 birds, on Day 22.
Feed intake, water intake, weight gain and mortality were used as outcome parameters.
Individual daily feed intake and individual daily water intake data by pen and then by treatment group were calculated for Phases 1 and 2 (and for the entire trial for the birds in Group/Pen 2, 15 and 16 that continue through both Phases) using figures for total feed and water provided each day to each pen divided by the number of birds in each pen. Where errors in weighing, feeding/watering or recording (or other unexplained losses of feed and water) had occurred means were adjusted by using the mean value for the same pen on the 1-2 days either side of the apparent error. Similarly, group mean bodyweights were calculated for Phase 1 using total weight/total no. birds for Day 0 and individual weights from Days 7, 14, 21, 28, 35 and 42. Total (individual) feed consumed was calculated per treatment and feed conversion ratios per treatment calculated using the expression: total (individual) feed/total (individual) weight gain.
Individual daily feed intake and individual daily water intake were statistically compared by treatment within each phase and between Pens 2 and 15/16 over both phases using a linear model:—
and Tibco SPOTFIRE S+ 8.2 (2010). ‘Day’ was included in the model to allow for changes over time, ‘Pen’ as each treatment consisted of 2 pens while an interaction term ‘Treatment:Day’ was included to allow for treatment×time effects. Model suitability was confirmed by inspection of residual plots; in all instances the statistical model was appropriate.

[2] = system: Eimeria species (mainly E. acervulina); settings: in vivo
[3] = General safety in broilers reared to market weight by histology (Example 8); settings: histology D42
[4] = in vivo
[5] = Phase 1, IVP 1 g/L in-water Day 0-21, pens 3, 4
[6] = Phase 1, IVP 1 g/L in-water Day 1-21, pens 5, 6
[7] = Phase 1, IVP 1 g/L in-water Day 2-21, pens 7, 8
[8] = Phase 1, IVP 1 g/L in-water Day 3-21, pens 9, 10
[9] = Phase 1, IVP 1 g/L in-water Day 4-21, pens 11, 12
[10] = Phase 1, IVP 1 g/L in-water Day 5-21, pens 13, 14
[11] = Phase 1, IVP 1 g/L in-water Day 6-21 (42), pens 15, 16
[12] = Phase 2 (day-old chicks received Day 22), pens 19, 20, Day 25-42FEED (IVP in-feed)
[13] = Phase 2 summary, pens 15, 16, D6-21(42), IVP 1 g/L in-water, birds kept to day 42

## COc1ccc2cc3[n+](cc2c1OC)CCc1cc2c(cc1-3)OCO2 [IRP001 chloride, berberine chloride]
[1]; [5]
  FCR: 1.49
  Gain: 0.610 kg
  Group mean bodyweight Day 0: 43.2
  Group mean bodyweight Day 7: 118.1
  Group mean bodyweight Day 14: 291.9
  Group mean bodyweight Day 22: 653.6
  Total Feed: 0.908 kg
[1]; [6]
  FCR: 1.50
  Gain: 0.678 kg
  Group mean bodyweight Day 0: 42.4
  Group mean bodyweight Day 7: 125.8
  Group mean bodyweight Day 14: 309.0
  Group mean bodyweight Day 22: 720.7
  Total Feed: 1.019 kg
[1]; [7]
  FCR: 1.45
  Gain: 0.675 kg
  Group mean bodyweight Day 0: 44.6
  Group mean bodyweight Day 7: 132.0
  Group mean bodyweight Day 14: 315.4
  Group mean bodyweight Day 22: 719.4
  Total Feed: 0.977 kg
[1]; [8]
  FCR: 1.44
  Gain: 0.653 kg
  Group mean bodyweight Day 0: 42.4
  Group mean bodyweight Day 7: 118.6
  Group mean bodyweight Day 14: 295.1
  Group mean bodyweight Day 22: 695.7
  Total Feed: 0.939 kg
[1]; [9]
  FCR: 1.46
  Gain: 0.716 kg
  Group mean bodyweight Day 0: 41.8
  Group mean bodyweight Day 7: 138.8
  Group mean bodyweight Day 14: 320.3
  Group mean bodyweight Day 22: 758.2
  Total Feed: 1.046 kg
[1]; [10]
  FCR: 1.48
  Gain: 0.680 kg
  Group mean bodyweight Day 0: 44.3
  Group mean bodyweight Day 7: 135.3
  Group mean bodyweight Day 14: 316.8
  Group mean bodyweight Day 22: 724.7
  Total Feed: 1.010 kg
[1]; [11]
  FCR: 1.40
  Gain: 0.723 kg
  Group mean bodyweight Day 0: 43.8
  Group mean bodyweight Day 7: 139.1
  Group mean bodyweight Day 14: 325.2
  Group mean bodyweight Day 22: 767.2
  Total Feed: 1.016 kg
[1]; [12]
  Bodyweight Day 28: 112.4 g
  Bodyweight Day 35: 273.6 g
  Bodyweight Day 42: 614.9 g
  FCR: 1.56
  Feed: 0.783 kg
  Gain: 0.502 kg
[1]; [13]
  Bodyweight Day 28: 1.16 kg
  Bodyweight Day 35: 1.66 kg
  Bodyweight Day 42: 2.39 kg
  FCR: 1.64
  Feed: 3.841 kg
  Gain: 2.346 kg
[2]
  FCR 0-14 corrected for mortality: 1.120 and 1.125 and 1.103
  FCR 0-21 corrected for mortality: 1.285 and 1.256 and 1.250
  FCR 0-28 corrected for mortality: 1.470 and 1.467 and 1.486
  Feed per bird over days 0-14: 485^B g/bird and 513^A g/bird and 512^A g/bird
  Feed per bird over days 0-21: 1186^B g/bird and 1227^AB g/bird and 1240^AB g/bird
  Feed per bird over days 0-28: 1957 g/bird and 2037 g/bird and 2049 g/bird
  Feed per bird over days 0-42: 4121 g/bird and 4247 g/bird and 4305 g/bird
  Mean Weight Gain over days 0-7: 113 gm and 121 gm and 119 gm
  Mean Weight Gain over days 8-14: 320^C gm and 334^A gm and 343^A gm
  Mean Weight Gain over days 15-21: 491^B gm and 517^A gm and 528^A gm
  Mean Weight Gain over days 22-28: 593 gm and 618 gm and 600 gm
  Mean Weight Gain over days 29-42: 1324 gm and 1341 gm and 1436 gm
  Mean live weight at 0 days: 41 gm
  Mean live weight at 7 days: 154 gm and 163 gm and 160 gm
  Mean live weight at 14 days: 432^B gm and 456^A gm and 461^A gm
  Mean live weight at 21 days: 973^C gm and 972^AB gm and 989^A gm
  Mean live weight at 28 days: 1517^B gm and 1590^A gm
  Mean live weight at 42 days: 2840^B gm and 2932^A gm and 3026^A gm
  appearance of bird health: always appeared healthy
  droppings: moist yellow-ish droppings
  early growth rate: significantly lower than all other groups
  growth rate: statistically similar to the control group
  lesion scores in duodenum, jejunum and total gut: highest lesion scores
  reduction of coccidial lesions: not by the lower dose rates
  total intestinal health scores (Tierlynck et al.): approached significance
  translucency score upper intestine and undigested feed particles in rectum: reduced translucency score in the upper intestine and the presence of undigested feed particles in the rectum
[3]
  gastrointestinal tract (GIT) histologic lesions: within normal limits
  liver histologic lesions: within normal limits
[4]
  Cumulative Pathology and Enteritis scores: equal or lower than the control
